“And” between values parts separate entries of the source, which are not always exact repeats. Equal entries are not always repeated.
How the values were obtained:
[1] = Biliary clearance in sandwich-cultured hepatocytes; assay type: in vitro ADME; settings: sandwich-cultured hepatocytes
[2] = system: sandwich-cultured hepatocytes; test: Biliary clearance in sandwich-cultured hepatocytes; assay type: in vitro ADME; settings: after scaling up
[3] = Adult PBPK model (Simcyp) development, simulation and verification; design: species or system human
Source text: A PBPK model for leriglitazone HCl was developed with the Simcyp Population-Based Simulator Version 17 release 1.
A first-order absorption model with inputs based on clinical data was used to describe the absorption kinetics of the drug. Dose-dependent ka values were estimated from phase 1 SAD data and were incorporated to account for the less than dose proportional increase in the Cmax of leriglitazone as well as the negative food effect on the Cmax (Table 2).
A global scalar of 0.7 was applied to match the estimated value. The full PBPK model was applied in all simulations of the plasma concentration-time profiles of the drug in order to recover the shape of the concentration-time profiles.
Predictions of plasma concentration-time profiles and clearance were performed in the Simcyp Simulator using the default Sim-Healthy volunteer population, whose parameter values have been described previously. Howgate, E. M., et al., Xenobiotica Fate Foreign Compd. Biol. Syst. 36, 473-497 (2006); Inoue, S. et al., Xenobiotica Fate Foreign Compd. Biol. Syst. 36, 499-513 (2006). The trial design used for simulation of the plasma concentration-time profile of a single dose of leriglitazone in fasted and fed subjects was based on the phase 1 SAD results. Concentration-time profiles, using 10 virtual trials of 6 subjects (all male) aged 21 to 50 years receiving a single oral dose of 30, 90 or 270 mg under the fasted conditions and a single oral dose of 90 or 270 mg under fed conditions were simulated over a duration of 144 hours. Visual checks of the predicted concentration-time profiles were performed and the key PK parameters (AUC, Cmax and Tmax) were compared to those observed in the phase 1 study (Table 8).
The PBPK model was verified by comparing the predicted concentration-time profiles with the observed phase 1 MAD data. The trial design used for simulation was based on multiple doses of 135 mg or 270 mg in fed healthy subjects. […]

[4] = Population pharmacokinetic model of studies MT-1-01, MT-2-01, MT-2-03; assay type: in vivo, human
Source text: MT-1-01 (healthy volunteers), MT-2-01 (adult men with adrenomyeloneuropathy (AMN), MT-2-03 (men, women≥12 years with Friedreich's Ataxia).
A total of 2140 valid plasma concentration measurements from 130 individuals were used in the analysis. Full PK profiles were available only from MT-1-01. In MT-2-03 only pre-dose (trough) concentrations were taken at multiple visits, while in MT-2-01 also sparse post-dose samples were taken. Less than 1% of all samples were below the limit of quantification.
2. Structural model-development using only data from healthy volunteers (MT-1-01) and inclusion of key structural covariates (food, body weight).
3. Re-estimation of parameters on the full analysis dataset (MT-1-01, MT-2-01, MT-2-03). Finalization of base model.
4. Stepwise automatic covariate modeling (SCM) using the base model.
NONMEM v7.5 was used for the population modelling. The RxODE package (v0.9.2) for R (v4.0.2) was used for the simulations.
Automated stepwise covariate modeling (SCM) using a forward addition/backward deletion procedure as implemented in PsN, Karlsson and Savic, C/in Pharmacol Ther 82:17-20 (2008), was applied to the base model on the complete analysis dataset. To improve the computation time of the SCM, PsN generates a linearized form of the model applying a Taylor-transformation on which then the covariate function is applied. Anderson et al., Annu Rev Pharmacol Toxicol 48:303-332 (2008). The final model from the SCM procedure was then rerun in its original, untransformed form.
The following covariates were tested in the model for their association with CL and relative bioavailability (F): • BMI • Height • Age • Ethnicity (Hispanic yes/no) • Sex

CC(O)c1ccc(CCOc2ccc(CC3SC(=O)NC3=O)cc2)nc1 (stereo not shown) [Leriglitazone, 5-[[4-[2-[5-(1-hydroxyethyl)pyridin-2-yl]ethoxy]phenyl]methyl]-1,3-thiazolidine-2,4-dione]
hepatocyte CLint [1]: 0.358 µL/min/1e6 cells | microsomal CLint [1]: 0.5 µL/min/mg | biliary clearance as fraction of total clearance (feBIL) [2]: 19.5% | renal clearance fraction (fe) ([3]; PBPK model): 5% | CLint, additional ([3]; PBPK model input): 0.281 µL/min/mg | share of metabolism, undefined metabolism ([3]; before accounting for biliary and renal clearance): 6% | lower CL in women ([4]; popPK covariate sex): 14.7% | reduction of absorption rate when taken with food ([4]; popPK estimate): 82.9% | reduction of bioavailability by food ([4]; popPK estimate): 4.8% and < 5% | typical rate of absorption ([4]; taken without food, popPK estimate): 5.2 h⁻¹
